These results are taken from patent US20250201406A1, “METHOD AND BIOMARKER FOR PREDICTING SEVERITY OF COVID-19 DISEASE AND METHOD FOR THERAPEUTIC INTERVENTION IN COVID-19 DISEASE” (priority 2022, published 2025).

Assay [1] deals with COVID-19. The note with it: COVID-19 patients, stage-2 clinical trial; cited from earlier work.
The test system of assay [2] is COVID-19. The note with it: randomized clinical trials; cited from earlier work.
The subject of assay [3] is CD8^+Tc. The experiment in a line: SARS-CoV-2 specific peptide activation of COVID(+) PBMCs in presence or absence of Mdivi-1, flow cytometry of CD8+Tc. Format: cell-based, human. As to conditions: 20 μM Mdivi-1 vs vehicle, 96 hr, CD8a SARS-CoV-2 megapool peptide, PBMCs from COVID-19(+) patients. The method, then: (§1) PBMCs (0.5×10^6 cells) were first stained with live/dead in PBS for 15 min, washed with Flow Cytometry Staining Buffer (FACS Buffer), and stained with surface markers in ice-cold FACS buffer at 4° C. for 30 min. PBMCs were then washed twice with FACS buffer and stained with secondary antibodies for 15 minutes. Samples were fixed and permeabilized using Fixation/Permeabilization buffer (20 min) at room temperature and washed with ice-cold FACS buffer. PBMCs were then stained with intracellular antibodies at 37° C. for 45 min in permeabilization buffer. Samples were washed once with permeabilization buffer before being resuspended in FACS buffer for flow cytometric analysis using Cytoflex system. Data was then analyzed by Flowjo™v10.
(§2) PBMCs (5×10^5) were stimulated with […] of CD8a SARS-CoV-2 megapool peptide^92 in the presence of absence of 20 μM Mdivi-1 at 37° C., 5% C02 for 96 hr.
(§3) FIGS. 15A-F. Mitophagy inhibition restores CD8^+Tc and SARS-CoV-2 specific CD8^+Tc function. PBMCs from 5 COVID-19(+) patients were activated with SARS-CoV-2 megapool CD8a peptide (see Methods) in the presence or absence of MDIVI-1 (20 μM). One sample was excluded from analysis due to critically low CD8^+Tc count. […] Two-tailed student's T-test was used. *p<0.05, **p<0.01, and ***p<0.001.
On the technique in general: A flow cytometer gives signals particle by particle.

Assay [4] has as its system SARS-CoV-2. As to conditions: virally infected cells; cited from earlier work.
Assay [5] relates to CD8^+TM. The experiment in a line: SARS-CoV-2 specific peptide activation of COVID(+) PBMCs in presence or absence of Mdivi-1, flow cytometry of CD8+TM. Format: cell-based, human. The note with it: 20 μM Mdivi-1 vs vehicle, 96 hr, CD8a SARS-CoV-2 megapool peptide, PBMCs from COVID-19(+) patients. As for the experimental part:
as §1, §2, §3

Assay [6] deals with SARS-CoV-2 specific CD8^+Tc. As to conditions: through normalizing cellular metabolism; cited from earlier work.

For the molecule `O=CC[C@@H](O)[C@H](O)[C@H](O)CO` [2-DG, 2-deoxy-glucose], the patient outcomes in assay [1] was “successful in improving patient outcomes”.

As for `CCN(CCO)CCCC(C)Nc1ccnc2cc(Cl)ccc12` (stereo not drawn) [Hydroxychloroquine], the “efficacy in COVID-19” value in assay [2] is given as “ineffective”.

Turning to `COc1cc(-n2c(=S)[nH]c3ccccc3c2=O)c(Cl)cc1Cl` [Mdivi-1], the “generation of SARS-CoV-2-specific CD137^+ cells amongst CD8+Tc” value in assay [3] (FIG. 15B) is on record as “improved”. Also, the “proliferation (Ki-67^+ cells) of CD8+Tc” value in assay [3] (FIG. 15C) is listed as “induced”. For the same molecule, in assay [3] (FIG. 15D), the “IFNy-secreting capacity of CD8^+Tc” value is on record as “induced”. Further, the SARS-CoV-2 replication entry in assay [4] was “effectively reduce”. For the same molecule, the “Glut-1 expression in CD8^+TM” value in assay [5] was “reduced”. In addition, the “CD8^+TM proliferation (Ki-67)” value in assay [5] (FIG. 15E) was “augmented”.

Regarding “cyclophilin A: found to restore SARS-CoV-2 specific CD8+Tc function through normalizing cellular metabolism”, the “SARS-CoV-2 specific CD8^+Tc function” value in assay [6] is “restore”.
